The nature of experiment [1]: Antagonist activity at P2Y14R (unknown origin). Set-up: species or system Homo sapiens.
Experiment [2] addresses T1, P2Y purinoceptor 1 (Homo sapiens, UniProt P47900). The experiment in a line: Binding affinity yo human P2Y1R extracted from baculovirus infected Sf9 cells assessed as inhibition constant incubated for 30 mins.
Experiment [3] concerns the target T2, P2Y purinoceptor 12 (Homo sapiens, UniProt Q9H244). Kind of experiment: Inhibition of P2Y12R (unknown origin) by HTS assay.
A further experiment deals with T3, P2Y purinoceptor 14 (Homo sapiens, UniProt Q15391).
T3 sequence (Q15391 whole entry): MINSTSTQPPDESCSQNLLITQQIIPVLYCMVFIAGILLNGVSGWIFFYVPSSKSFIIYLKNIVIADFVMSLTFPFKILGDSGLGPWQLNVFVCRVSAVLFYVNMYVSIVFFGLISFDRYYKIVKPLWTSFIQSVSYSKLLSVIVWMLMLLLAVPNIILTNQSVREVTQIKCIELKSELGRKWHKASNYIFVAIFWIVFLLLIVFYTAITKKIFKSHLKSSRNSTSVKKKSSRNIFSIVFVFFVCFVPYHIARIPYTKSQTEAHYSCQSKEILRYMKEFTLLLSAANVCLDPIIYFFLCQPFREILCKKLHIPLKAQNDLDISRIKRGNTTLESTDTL
Kind of experiment: Binding affinity to P2Y14R (unknown origin) expressed in CHO cells assessed as inhibition constant. In kind it is cell-based.

Experiment [4] concerns the target T1, P2Y purinoceptor 1. Kind of experiment: inhibition of P2Y1R (unknown origin).
The target in a further experiment is P2Y purinoceptor 2 (Homo sapiens, UniProt P41231). The experiment in a line: Antagonist activity at human P2Y2R stably expressed in 1321N1 cells assessed as UTP-induced Ca2+ accumulation preincubated with compound for 30 mins followed by UTP addition by […]. In kind it is functional, cell-based.
Sequence of P2Y purinoceptor 2 (P41231 whole entry): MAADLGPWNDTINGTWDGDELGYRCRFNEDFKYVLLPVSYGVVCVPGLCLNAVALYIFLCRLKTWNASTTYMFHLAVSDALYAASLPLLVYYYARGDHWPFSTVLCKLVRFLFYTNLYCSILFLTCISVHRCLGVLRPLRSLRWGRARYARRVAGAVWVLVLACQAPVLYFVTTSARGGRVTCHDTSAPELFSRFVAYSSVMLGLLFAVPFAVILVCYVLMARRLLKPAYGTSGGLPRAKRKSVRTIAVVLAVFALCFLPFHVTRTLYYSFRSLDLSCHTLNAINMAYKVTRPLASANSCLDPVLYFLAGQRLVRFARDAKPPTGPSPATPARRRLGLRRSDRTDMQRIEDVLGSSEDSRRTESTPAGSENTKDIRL
In experiment [5] the target is T2, P2Y purinoceptor 12. The experiment in a line: Antagonist activity at P2Y12R (unknown origin).
Experiment [6] can be described thus: Inhibition of platelet aggregation in human platelet rich plasma preincubated for 5 mins followed by aggregation inducer addition and measured after 5 mins by light transmission aggregation method. In kind it is functional.
The target of experiment [7] is T2, P2Y purinoceptor 12. The experiment in a line: Binding affinity to human P2Y12R expressed in CHO cells assessed as dissociation constant SPR assay.

This is an account of results in ChEMBL document CHEMBL6109176, “Drug-like Antagonists of P2Y Receptor Subtypes: An Update” (J Med Chem, 2025).

Each structure is given as a SMILES string.

T1 sequence (P47900 whole entry): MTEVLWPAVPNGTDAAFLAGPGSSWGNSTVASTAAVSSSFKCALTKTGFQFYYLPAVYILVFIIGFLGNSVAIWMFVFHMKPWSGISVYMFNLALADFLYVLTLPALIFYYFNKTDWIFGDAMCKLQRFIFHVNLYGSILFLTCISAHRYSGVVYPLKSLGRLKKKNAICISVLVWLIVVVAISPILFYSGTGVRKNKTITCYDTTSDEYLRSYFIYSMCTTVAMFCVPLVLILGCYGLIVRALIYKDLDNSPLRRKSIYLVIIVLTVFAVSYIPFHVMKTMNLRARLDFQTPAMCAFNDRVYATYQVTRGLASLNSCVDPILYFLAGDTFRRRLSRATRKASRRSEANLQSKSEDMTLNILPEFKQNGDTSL
T2 sequence (Q9H244 whole entry): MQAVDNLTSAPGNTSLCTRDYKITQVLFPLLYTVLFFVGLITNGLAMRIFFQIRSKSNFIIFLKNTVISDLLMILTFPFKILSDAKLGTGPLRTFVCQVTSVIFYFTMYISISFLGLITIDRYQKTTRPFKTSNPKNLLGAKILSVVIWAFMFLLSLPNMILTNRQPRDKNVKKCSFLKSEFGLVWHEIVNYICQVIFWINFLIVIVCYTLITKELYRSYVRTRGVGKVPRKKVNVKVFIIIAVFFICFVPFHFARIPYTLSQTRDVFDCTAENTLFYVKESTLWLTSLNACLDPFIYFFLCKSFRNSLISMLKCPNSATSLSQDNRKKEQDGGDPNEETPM

Take `O=C(O)c1cc(-c2ccc(-c3cn([C@@H]4O[C@H](CO)[C@@H](O)[C@H](O)[C@H]4O)nn3)cc2)c2ccc(-c3ccc(C(F)(F)F)cc3)cc2c1`: the IC50 in experiment [1] worked out at 12.8 nM.

With `CNc1nc(I)nc2c1ncn2[C@H]1C[C@H](OP(=O)(O)O)[C@]2(COP(=O)(O)O)C[C@H]12`, the Ki at P2Y purinoceptor 1 [2] worked out at 0.79 nM.

Regarding `CCOC(=O)N1CCN(C(=O)[C@H](CCC(=O)O)NC(=O)c2cc(OC(C)(C)C(=O)O)c3ccc(C)cc3n2)CC1`, at P2Y purinoceptor 12 [3], it took 290 nM to reach half-maximal inhibition (IC50).

Regarding `N=C1C=CC2=C(c3ccc(C(=O)NCCCCCCn4cc(CCCCN5CCC(c6ccc(-c7cc(C(=O)O)cc8cc(-c9ccc(C(F)(F)F)cc9)ccc78)cc6)CC5)nn4)cc3C(=O)O)C3C=CC(N)=C(S(=O)(=O)O)C3OC2C1S(=O)(=O)O` (stereo not drawn), the Ki on P2Y purinoceptor 14 amounted to 0.08 nM.

On to `Cc1nc(/N=N/c2cc([N+](=O)[O-])ccc2Cl)c(COP(=O)(O)O)c(C=O)c1O`, for which, at P2Y purinoceptor 1 [4], the IC50 stood at 1100 nM.

Turning to `O=C(O)c1cc(-c2ccc(C3CCN(CCc4cn([C@@H]5O[C@H](CO)[C@@H](O)[C@H](O)[C@H]5O)nn4)CC3)cc2)c2ccc(-c3ccc(C(F)(F)F)cc3)cc2c1`, the IC50 in experiment [1] was 2.4 nM.

Regarding `Cc1nc(/N=N/c2ccc(Cl)c([N+](=O)[O-])c2)c(COP(=O)(O)O)c(C=O)c1O`, the IC50 on P2Y purinoceptor 1 [4] came out at 660 nM.

`Cc1cc(O)c(C2=Nc3cc(C(F)(F)F)ccc3SC(c3cccc(O)c3)C2)c(=O)o1` (stereo not drawn): the IC50 on P2Y purinoceptor 2 was 10900 nM.

Consider `CCOC(=O)N1CCN(C(=O)[C@H](CCC(=O)O)NC(=O)c2cc(OC(C)(C)C(=O)OCC)c3ccc(C)cc3n2)CC1`, for which the IC50 at P2Y purinoceptor 12 [3] stood at 97 nM.

The molecule `CC(NC(=O)C(C)c1ccc(-c2ccccc2)c(F)c1)C(=O)O` (stereo not drawn) had an IC50 in experiment [1] of 5.12 nM.

As for `CNc1cc2[nH]c(=O)n(-c3ccc(NC(=O)NS(=O)(=O)c4ccc(Cl)s4)cc3)c(=O)c2cc1F` [ELINOGREL], on P2Y purinoceptor 12 [5], the IC50 was less than 10000 nM.

As for `CCCCOC(=O)N1CCN(C(=O)[C@H](CP(=O)(O)O)NC(=O)c2cc(N3CC[C@H](OC)C3)nc(-c3ccccc3)n2)CC1` [SELATOGREL], 14 nM corresponded to half-maximal inhibition in experiment [6] (IC50). For the same molecule, the dissociation constant Kd on P2Y purinoceptor 12 [7] was 1.5 nM.
